Test results from patent US20260262643A1, “HERBICIDAL BENZOXAZINES” (FMC CORPORATION, priority 2022, published 2026).
Where two headings read alike, the source gives them in different places.

What was measured:
foxtail, giant [1] = experiment: Test A preemergence; type: in vivo, Setaria faberi; settings: Setaria faberi, pre-emergence, 240 h, read-out: Plant response rating, Foxtail, Giant; for pest or weed control at 125 g/ha: 125 g ai/ha; for pest or weed control at 500 g/ha: 500 g ai/ha
Procedure, shortened: (§1)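 Loam/sand soil; pre-em directed soil spray at planting, post-em spray at 1–2 leaf (2–10 cm). Compound in non-phytotoxic solvent + surfactant. Greenhouse 10 d; visual injury vs untreated, 0 = no effect, 100 = complete control.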

foxtail, giant [2] = experiment: Test A postemergence; type: in vivo, Setaria faberi; settings: Setaria faberi, post-emergence, 240 h, postemergence, 10 days, 0 to 100 scale (0 no effect, 100 complete control); for pest or weed control at 125 g/ha: 125 g ai/ha, read-out: Foxtail, Giant plant response rating; for pest or weed control at 500 g/ha: 500 g ai/ha, visual injury, read-out: Plant response rating, Foxtail, Giant
Procedure, shortened: as §1

ragweed = experiment: Test A postemergence; type: in vivo, Ambrosia artemisiifolia; settings: Ambrosia artemisiifolia, post-emergence, 240 h, postemergence, 10 days, 0 to 100 scale (0 no effect, 100 complete control); for pest or weed control at 125 g/ha: 125 g ai/ha, read-out: Ragweed plant response rating; for pest or weed control at 500 g/ha: 500 g ai/ha, visual injury, read-out: Plant response rating, Ragweed
Procedure, shortened: as §1

sedge, umbrella = experiment: Test B flooded paddy test; type: in vivo, Cyperus difformis; settings: Cyperus difformis, 312 h; 250 g ai/ha, Flood, 13 days, 0 to 100 scale (0 no effect, 100 complete control); read-out: Plant response rating, Sedge, Umbrella
Procedure, shortened: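 Compound is introduced into paddy water covering soil by 3 cm, treating plants that have reached two leaves. Pots are kept flooded at that depth under greenhouse conditions. Assessment at 13 days gives a 0–100 visual control score.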

blackgrass [3] = experiment: Test A postemergence; type: in vivo, Alopecurus myosuroides; settings: Alopecurus myosuroides, post-emergence, 240 h, postemergence, 10 days, 0 to 100 scale (0 no effect, 100 complete control); for pest or weed control at 125 g/ha: 125 g ai/ha, read-out: Blackgrass plant response rating; for pest or weed control at 500 g/ha: 500 g ai/ha, visual injury, read-out: Plant response rating, Blackgrass
Procedure, shortened: as §1

pigweed, palmer = experiment: Test A postemergence; type: in vivo, Amaranthus palmeri; settings: Amaranthus palmeri, post-emergence, 240 h, postemergence, 10 days, 0 to 100 scale (0 no effect, 100 complete control); for pest or weed control at 125 g/ha: 125 g ai/ha, read-out: Pigweed, Palmer plant response rating; for pest or weed control at 500 g/ha: 500 g ai/ha, visual injury, read-out: Plant response rating, Pigweed, Palmer
Procedure, shortened: as §1

ryegrass, Italian = experiment: Test A postemergence; type: in vivo, Lolium multiflorum; settings: Lolium multiflorum, post-emergence, 240 h, postemergence, 10 days, 0 to 100 scale (0 no effect, 100 complete control); for pest or weed control at 125 g/ha: 125 g ai/ha, read-out: Ryegrass, Italian plant response rating; for pest or weed control at 500 g/ha: 500 g ai/ha, visual injury, read-out: Plant response rating, Ryegrass, Italian
Procedure, shortened: as §1

galium = experiment: Test A postemergence; type: in vivo, Galium aparine; settings: Galium, post-emergence, 240 h, postemergence, 10 days, 0 to 100 scale (0 no effect, 100 complete control)
Procedure, shortened: as §1

goosegrass [4] = experiment: Test A preemergence; type: in vivo, Eleusine indica; settings: Eleusine indica, pre-emergence, 240 h, read-out: Plant response rating, Goosegrass; for pest or weed control at 125 g/ha: 125 g ai/ha; for pest or weed control at 500 g/ha: 500 g ai/ha
Procedure, shortened: as §1

goosegrass [5] = experiment: Test A postemergence; type: in vivo, Eleusine indica; settings: Eleusine indica, post-emergence, 240 h, postemergence, 10 days, 0 to 100 scale (0 no effect, 100 complete control); for pest or weed control at 125 g/ha: 125 g ai/ha, read-out: Goosegrass plant response rating; for pest or weed control at 500 g/ha: 500 g ai/ha, visual injury, read-out: Plant response rating, Goosegrass
Procedure, shortened: as §1

oat, wild = experiment: Test A postemergence; type: in vivo, Avena fatua; settings: Avena fatua, post-emergence, 240 h, postemergence, 10 days, 0 to 100 scale (0 no effect, 100 complete control); for pest or weed control at 125 g/ha: 125 g ai/ha, read-out: Oat, Wild plant response rating; for pest or weed control at 500 g/ha: 500 g ai/ha, visual injury, read-out: Plant response rating, Oat, Wild
Procedure, shortened: as §1

wheat = experiment: Test A postemergence; type: in vivo, Triticum aestivum; settings: Triticum aestivum, post-emergence, 240 h, postemergence, 10 days, 0 to 100 scale (0 no effect, 100 complete control); for plant injury at 125 g/ha: 125 g ai/ha, read-out: Wheat plant response rating; for plant injury at 500 g/ha: 500 g ai/ha, visual injury, read-out: Plant response rating, Wheat
Procedure, shortened: as §1

soybean = experiment: Test A preemergence; type: in vivo, Glycine max; settings: Glycine max, pre-emergence, 240 h, read-out: Plant response rating, Soybean; for plant injury at 125 g/ha: 125 g ai/ha; for plant injury at 500 g/ha: 500 g ai/ha
Procedure, shortened: as §1

blackgrass [6] = experiment: Test A preemergence; type: in vivo, Alopecurus myosuroides; settings: Alopecurus myosuroides, pre-emergence, 240 h, read-out: Plant response rating, Blackgrass; for pest or weed control at 125 g/ha: 125 g ai/ha, visual injury after 10 days, 0 to 100 scale, 0 is no effect, 100 is complete control; for pest or weed control at 500 g/ha: 500 g ai/ha, 0 to 100 scale (0 no effect, 100 complete control), 10 days
Procedure, shortened: as §1

[7] = visual injury after 10 days, 0 to 100 scale, 0 is no effect, 100 is complete control
[8] = 0 to 100 scale (0 no effect, 100 complete control), 10 days

Row | Structure (SMILES) | pest or weed control at 125 g/ha (foxtail, giant [1]; [7]) [%] | pest or weed control at 125 g/ha (foxtail, giant [2]) [%] | pest or weed control at 500 g/ha (foxtail, giant [2]) [%] | pest or weed control at 125 g/ha (ragweed) [%] | pest or weed control at 500 g/ha (ragweed) [%] | pest or weed control at 250 g/ha (sedge, umbrella) [%] | pest or weed control at 125 g/ha (blackgrass [3]) [%] | pest or weed control at 500 g/ha (blackgrass [3]) [%] | pest or weed control at 125 g/ha (pigweed, palmer) [%] | pest or weed control at 500 g/ha (pigweed, palmer) [%] | pest or weed control at 125 g/ha (ryegrass, Italian) [%] | pest or weed control at 500 g/ha (ryegrass, Italian) [%] | pest or weed control at 125 g/ha (goosegrass [4]; [7]) [%] | pest or weed control at 125 g/ha (goosegrass [5]) [%] | pest or weed control at 500 g/ha (goosegrass [5]) [%] | pest or weed control at 125 g/ha (oat, wild) [%] | pest or weed control at 500 g/ha (oat, wild) [%] | plant injury at 125 g/ha (wheat) [%] | plant injury at 500 g/ha (wheat) [%] | plant injury at 125 g/ha (soybean; [7]) [%] | also measured
1 | Cc1ccc(-n2ncnc2C)cc1C(=O)N1C[C@H](C)Oc2c(Cl)cccc21 (single isomer, unassigned) [Compound 126] | 60 | 0 | 70 | 30 | 50 | 0 | 0 | 40 | 0 | 30 | 0 | 50 | 20 | 0 | 0 | 0 | 50 | 0 | 30 | 0 | pest or weed control at 500 g/ha (foxtail, giant [1]; [7]): 100%; pest or weed control at 125 g/ha (galium; 125 g ai/ha, read-out: Galium plant response rating): 50%; pest or weed control at 500 g/ha (galium; 500 g ai/ha, visual injury, read-out: Plant response rating, Galium): 70%; pest or weed control at 500 g/ha (goosegrass [4]; [7]): 90%; plant injury at 500 g/ha (soybean; [7]): 50%
2 | CCc1ncn(-c2ccc(OC)c(C(=O)N3C[C@H](C)Oc4c(Cl)cccc43)c2)n1 [Compound 88, [(2S)-8-Chloro-2,3-dihydro-2-methyl-4H-1,4-benzoxazin-4-yl][5-(3-ethyl-1H-1,2,4-triazol-1-yl)-2-methoxyphenyl]methanone] | 100 | 90 | 90 | 70 | 100 | 100 | 60 | 90 | 90 | 90 | 80 | 100 | 100 | 100 | 100 | 90 | 90 | 40 | 90 | 50 | pest or weed control at 500 g/ha (foxtail, giant [1]; [8]): 100%; pest or weed control at 125 g/ha (blackgrass [6]): 80%; pest or weed control at 500 g/ha (blackgrass [6]): 80%; pest or weed control at 500 g/ha (goosegrass [4]; [8]): 100%; plant injury at 500 g/ha (soybean; [8]): 100%
3 | COc1ccc(-n2cnc(C(C)C)n2)cc1C(=O)N1C[C@H](C)Oc2c(Cl)cccc21 [Compound 84, [(2S)-8-chloro-2-methyl-2,3-dihydro-1,4-benzoxazin-4-yl]-[5-(3-isopropyl-1,2,4-triazol-1-yl)-2-methoxy-phenyl]methanone] | 100 | 80 | 100 | 100 | 100 | 100 | 70 | 70 | 90 | 100 | 100 | 100 | 100 | 100 | 100 | 90 | 90 | 40 | 50 | 90 | pest or weed control at 500 g/ha (foxtail, giant [1]; [8]): 100%; pest or weed control at 125 g/ha (blackgrass [6]): 80%; pest or weed control at 500 g/ha (blackgrass [6]): 80%; pest or weed control at 500 g/ha (goosegrass [4]; [8]): 100%; plant injury at 500 g/ha (soybean; [8]): 100%
